{"source": "patent US20260306657A1", "about": "“LIPOSOME CONJUGATE TARGETING M2 MACROPHAGE AND USE THEREOF” (HANGZHOU NORMAL UNIVERSITY, priority 2022, published 2026)", "key": {"4T1 breast cancer cells": {"test_system": "4T1 breast cancer cells", "test": "Cytotoxicity on 4T1 breast cancer cells (CCK-8 method)", "type": "cell-based", "settings": "24 h, CCK-8, n=3", "method": "Cytotoxicity Studies of Tumor-Targeted Liposomes:\n(1) The toxicity of ELE to 4T1 breast cancer cells was studied using a CCK-8 method. 4T1 cells (2×10^4 cells/well) were inoculated in a 96-well plate. After culturing for 24 h, the cells were treated with RMPI-1640 media containing ELE, ELE/Lipo, ELE/Lipo-AS1411, and FA-ELE/Lipo-AS1411 (drug concentrations being 10 μg/mL, 20 μg/mL, 40 μg/mL, 80 μg/mL, and 160 μg/mL, respectively) for 24 h. ELE was dissolved and diluted in medium containing 1% 0 ethanol, and untreated cells were used as a control. 100 μL of 10% CCK-8 solution was added into each well and incubated for 2 h. The absorbance at 450 nm was measured using an enzyme-labeled instrument, and the IC50 value of each drug group was calculated and analyzed using Graphpad9.0. A schematic diagram of the cytotoxicity of different concentrations of free ELE, ELE/Lipo, ELE/Lipo-AS1411, and FA-ELE/Lipo-AS1411 on 4T1 cells was shown in FIG. 5, where n=3, x±SD, ** P<0.01, *** P<0.001, **** P<0.0001 (vs. ELE); #P<0.05, ###P<0.001 (vs. ELE/Lipo-AS1411)."}, "M2 macrophages": {"test_system": "M2 macrophages", "test": "Cytotoxicity of ELE on M1 and M2 macrophages (CCK-8 method)", "type": "cell-based", "settings": "24 h, at 5 concentrations (10-160 μg/mL), * P<0.05, n=3", "method": "(2) The toxicity of ELE on M1 and M2 macrophages was studied using the CCK-8 method. RAW264.7 cells were pre-treated to polarize into M1 and M2 macrophages, and the M1 and M2 macrophages (2×10^5 cells/well) were inoculated in a 96-well plate. After culturing for 24 h, the cells were treated with 100 μL of DMEM high-glucose media containing ELE (drug concentrations being 10 μg/mL, 20 μg/mL, 40 μg/mL, 80 μg/mL, and 160 μg/mL, respectively) for 24 h. ELE was dissolved and diluted in medium containing 1% % ethanol, and untreated cells were used as a control. 100 μL of 10% CCK-8 solution was added into each well and incubated for 2 h. The absorbance at 450 nm was measured using an enzyme-labeled instrument, and the IC 50 values of each group of drugs were calculated and analyzed using Graphpad Prism 9.0. A schematic diagram of the cytotoxicity of different concentrations of ELE on M1 and M2 macrophages is shown in FIG. 6, where n=3, x±SD, * P<0.05, *** P<0.001, **** P<0.0001."}}, "data": [{"substance": "Elemene", "values": [{"measurement": "IC50", "setting": "4T1 breast cancer cells", "result": 921.4, "unit": "µg/mL"}, {"measurement": "toxic effect on M2 macrophages (vs. M1 macrophages)", "setting": "M2 macrophages", "result": "selective toxic effect on M2 macrophages"}]}]}
